Assay results taken from US12729209B2, “Macrocyclic compounds and methods of treatment” (University of Florida Research Foundation, Incorporated, priority 2020, dated 2026).
Numbered stars: 1 amine (or outer) side, 2 acyl side, 3 side chain; on linkers, the order of the positions; unused ones are H or OH. Square brackets hold non-standard residues; d marks the D form. Peptide text beside a SMILES is read from it. X1 = CN([C@H](C(=O)[*:2])[C@@H](O)C(N)=O)[*:1]; Pro(4S-Me) = C[C@@H]1CN[C@H](C(=O)O)C1; N(OH)Ala = C[C@H](NO)C(=O)O; Lac = C[C@H](O)C(=O)O; Dha = C=C(N)C(=O)O

Tests used:
[1] = from C=CCON(C(=O)[C@H]([C@@H](O[Si](C)(C)C(C)(C)C)C(=O)NC(c1ccccc1)(c1ccccc1)c1ccccc1)N(C)C(=O)C(C)OC(=O)[C@@H]1CC(C)CN1C(=O)OCC1c2ccccc2-c2ccccc21)[C@@H](C)C(=O)N[C@@H](C[Se]c1ccccc1)C(=O)OCC1c2ccccc2-c2ccccc21; amide bond; PyBOP/HOAt/DIEA; CH2Cl2; 0.61 mM; 25.0 °C; 24.0 h; 2 steps
[2] = tested on: HCT116^HIF-1α−/−HIF-2α−/− cells; experiment: MTT cell viability assay, isogenic HCT116 double knockout; assay type: cell-based, human; settings: 48 h, versus parental HCT116
Protocol: (§1) Parental HCT116, HCT116^HIF-1α−/−HIF-2α−/−, HCT116^HIF-1α−/−, HCT116^HIF-2α−/−, HCT116^WT KRAS along with normal colon cell line CCD841-CoN were cultured in Dulbecco's modified Eagle medium (DMEM, Life Technologies, USA) supplemented with 10% Fetal Bovine Serum (FBS, Sigma, USA) and maintained in 5% CO2 at 37° C. HCT116 cells (8,000 cells/well) and normal cells (3,000 cells/well) were seeded in 96-well plates, allowed to attach overnight and then treated with different concentrations of GB1 (1a) or solvent control (0.5% DMSO). Cell viability was measured 48 h following treatment with MTT dye using manufacturer's protocol (Promega). IC50 was determined by non-linear regression analysis using GraphPad Prism 8. Data are represented as average±SD (n=3).

[3] = tested on: ovarian (OVCAR-3) cancer cells; experiment: NCI-60 screen, OVCAR-3; assay type: cell-based; settings: NCI-60 data
Description: (§2) FIG. 27 depicts a heatmap for the performance of GB1 across cell lines in the NCI-60 screen using three different values (growth-inhibitory effect, GI50; cytostatic effect, TGI; cytotoxic effect, LC50; concentration in M).

[4] = tested on: HCT116 cells; experiment: HCT116 cell cycle analysis (propidium iodide, flow cytometry); assay type: cell-based, human; settings: 320 nM, 1 μM, 3.2 μM, 24 h
Protocol: FIG. 25 depicts a cell cycle analysis. HCT116 cells were treated with GB1 (320 nM, 1 μM, 3.2 μM) or vehicle control (0.25% DMSO) for 24 h and DNA content assessed by flow cytometry of propidium iodide stained cells.
HCT116 cells were seeded in 6-well plates (400,000 cells/well, DMEM/10% FBS and allowed to attach overnight prior to treatment with GB1. Media was replaced by fresh DMEM/10% FBS after 24 h of incubation and treated with compound and solvent control (0.25% DMSO) for 24 h. The medium in each well was collected separately, and the cells washed with 500 μL PBS and collected into the corresponding tubes. Cells were detached using trypsin (Invitrogen) and collected into the corresponding tubes and centrifuged at 400 g for 10 min at 4° C. The supernatant was discarded and the cell pellets were resuspended in 500 μL ice-cold PBS, centrifuged at 400 g for 10 min at 4° C. and supernatant was discarded. The cell pellets were resuspended in 300 μL ice-cold PBS and 700 μL ice-cold EtOH was added slowly to each cell suspension with gentle pipetting. Cells were incubated at −20° C. overnight and centrifuged at 400 g for 10 min at 4° C. next day. […] Fluorescence from propidium iodide-DNA complexes were quantified using FACScan (BD Biosciences LSRFortessa) and data were analyzed using ModFit LT (Verity Software House).

[5] = tested on: CCD841-CoN normal epithelial colon cells; experiment: MTT cell viability assay, normal colon cells; assay type: cell-based; settings: 48 h treatment
Protocol: as §1

[6] = tested on: tubulin; experiment: Tubulin polymerization assay (fluorescence based in vitro kit); assay type: biochemical; settings: tubulin 2 mg/mL, 37° C., 1 hour
Protocol: Tubulin polymerization was performed using fluorescence based in vitro polymerization kit (Cytoskeleton, #BK011P) per the manufacturer recommendation. Briefly, the provided tubulin was reconstituted to 10 mg/mL stock, as recommended, and used at final concentration of 2 mg/mL in 80 mM PIPES pH 6.9, 2.0 mM MgCl2, 0.5 mM EGTA, 1.0 mM GTP and 15% glycerol for the assays. The compound was prepared in 3-fold dilutions and kept on ice until the assay was started. Buffer components and tubulin stocks were kept on ice until use. The assay plate was pre-warmed at 37° C. for 10 minutes and the compounds were added to the plate wells at 5 uL (<10% DMSO) for 1 minute to warm. Fifty microliters of tubulin reaction mix (2 mg/mL in 80 mM PIPES pH 6.9, 2.0 mM MgCl2, 0.5 mM EGTA, 1.0 mM GTP and 15% glycerol) was added to each well and mixed gently with the inhibitor to avoid bubble formation. The plate was read on FlexStation3 reader (Molecular Devices) at 360 nm excitation/450 nm emission, every minute for 1 hours at 37° C. Decrease in fluorescent signal indicated inhibition of polymerization.

[7] = tested on: HeLa cells; experiment: Caspase-3/7 activity (Caspase-Glo 3/7) in HeLa cells; assay type: cell-based; settings: increasing concentrations, 14 h, 24 h and 36 h
Protocol: FIG. 29 depicts that GB1 causes apoptosis in HeLa cells with increased caspase activity. HeLa cells were treated with increasing concentrations of GB1 and combretastatin-4 (CA-4) (100 nM) using 0.5% DMSO as solvent control. Caspase-3/7 activity was measured using Caspase-Glo 3/7 reagent kit at 14 h, 24 h and 36 h. Data represents average of three replicates with ±SD. The p-values were calculated using two-tailed Student t-test; *p<0.05, **p<0.01, ***p<0.005.

[8] = tested on: HCT116^HIF-1α−/− cells; experiment: MTT cell viability assay, isogenic HCT116 HIF-1α knockout; assay type: cell-based, human; settings: 48 h, versus parental HCT116
Protocol: as §1

[9] = tested on: VEGFA; experiment: HIF target gene (VEGFA) expression by RT-qPCR; assay type: cell-based, human; settings: 3.2 μM (4×IC50), 16 h, parental HCT116 cells, β-actin endogenous control
Protocol: FIG. 26 depicts HIF target gene (VEGFA) expression after 16 h exposure of parental HCT116 cells to GB1 (3.2 μM) or vehicle (0.25% DMSO). RNA was isolated, reverse transcribed and subjected to qPCR using TaqMan analysis. β-actin served as endogenous control. Error bars indicate mean±SD of three replicates (student t test, *p<0.05).
HCT116 cells were seeded in 6-well plates at a density of 4×10^5 per well and incubated overnight for cells to attach. Cells were treated with 3.2 μM GB1 or 0.25% DMSO (vehicle). RNA was isolated 16 h later using the RNeasy mini kit (QIAGEN, Valencia, CA). Total RNA was quantified using NanoDrop 2000. cDNA synthesis was carried out using SuperScript II Reverse Transcriptase (Invitrogen, Carlsbad, CA) and oligo (dT) (Invitrogen) from 2 μg of total RNA. The qPCR after reverse transcription (RT-qPCR) was performed on a 25 μL reaction solution containing a […] aliquot of cDNA, 12.5 μL of TaqMan gene expression master mix, 1.25 μL of probes, and 11 μL RNase-free water. qPCR was carried out on an ABI 7300 sequence detection system using the thermocycler program: 2 min at 50° C., 10 min at 95° C., and 15 s at 95° C. (40 cycles) and 1 min at 60° C. Experiments were performed in triplicate. Probes for target gene: VEGFA (Hs00900055_m1) and for endogenous control: β-actin (Hs99999903_m1). […]

[10] = tested on: HCT116 colorectal cancer cells; experiment: MTT cell viability assay, parental HCT116; assay type: cell-based, human; settings: for IC50: 48 h treatment, read-out: IC50 against HCT116 colorectal cancer cells
Protocol: as §1

[11] = tested on: HCT116^WT KRAS cells; experiment: MTT cell viability assay, oncogenic KRAS knockout; assay type: cell-based, human; settings: 48 h, versus parental HCT116
Protocol: as §1

[12] = tested on: HCT116^HIF-2α−/− cells; experiment: MTT cell viability assay, isogenic HCT116 HIF-2α knockout; assay type: cell-based, human; settings: 48 h, compared among isogenic lines
Protocol: as §1

[13] = Qualitative test for Fe(III) chelating ability; assay type: physicochemical; settings: FeCl3 solution in ethanol (5% wt), orange spot
Description: We applied a solution of GB1 (1a) in CH2Cl2 to reverse TLC (C18) (MeOH/H2O 1:1, v/v), then dipped the TLC into FeCl3 solution in ethanol (5% wt).

[14] = tested on: melanoma (SK-MEL-5) cancer cells; experiment: NCI-60 screen, SK-MEL-5; assay type: cell-based; settings: NCI-60 data
Description: as §2

[15] = tested on: prostate (DU-145) cancer cells; experiment: NCI-60 screen, DU-145; assay type: cell-based; settings: NCI-60 data
Description: as §2

[16] = tested on: NCI-60 cell lines; settings: versus paclitaxel, eribulin, colchicine and vinca bis-indole alkaloid derivatives
Description: Furthermore, cervical and breast cancers are relevant indications, prompting additional studies in these cell types^35.

[17] = tested on: COLO205 cells; experiment: NCI-60 screen (sulforhodamine B assay), COLO205; assay type: cell-based; settings: NCI-60 data, read-out: GI50 against COLO205 cells
Description: as §2

[18] = tested on: HCT116 cells; experiment: NCI-60 screen (sulforhodamine B assay), HCT116; assay type: cell-based, human; settings: NCI-60 data, read-out: GI50 against HCT116 cells
Description: as §2

In the case of `C=CCON1C(=O)[C@H]([C@@H](O[Si](C)(C)C(C)(C)C)C(=O)NC(c2ccccc2)(c2ccccc2)c2ccccc2)N(C)C(=O)C(C)OC(=O)[C@@H]2CC(C)CN2C(=O)[C@H](C[Se]c2ccccc2)NC(=O)[C@@H]1C` (stereo partly drawn), the ring closure, yield of all isomers [1] is reported as 60.3%.
For `C=C1NC(=O)[C@H](C)N(O)C(=O)[C@H]([C@@H](O)C(N)=O)N(C)C(=O)[C@H](C)OC(=O)[C@@H]2C[C@H](C)CN2C1=O` [GB1, Gatorbulin-1] (cyclo([Dha][Pro(4S-Me)][Lac][X1][N(OH)Ala])), the “potency and efficacy against HCT116^HIF-1α−/−HIF-2α−/−” value [2] was “reduced”, the “susceptibility of OVCAR-3 ovarian cancer cells” value [3] was “susceptible” and the “cell cycle effect (DNA content)” value [4] was “induced G2/M accumulation”. The “effect on the viability of CCD-841CoN normal epithelial colon cells” value [5] was “marginal effect”, the IC50 ([5]; read-out: IC50 against normal mucosal colon cells) was over 10000 nM and the “inhibition of tubulin polymerization in vitro” value [6] was “directly inhibits tubulin polymerization”. The “caspase-3/7 activity / apoptosis in HeLa cells” value [7] was “induces apoptosis”, the “potency and efficacy against HCT116^HIF-1α−/−” value [8] was “reduced” and the “HIF-1α target gene VEGFA expression” value [9] was “downregulation”. For the same compound, the “antiproliferative activity, relative susceptibility of parental HCT116 cells” value ([10]; 48 h, compared among isogenic lines) was “most susceptible”, the IC50 [10] was 800 nM and the “potency and efficacy against oncogenic KRAS knockout (HCT116^WT KRAS)” value [11] was “reduced”. The “antiproliferative activity, relative susceptibility of HCT116^HIF-2α−/−” value [12] was “most susceptible”, the “Fe(III) chelating ability (FeCl3 on TLC)” value [13] was “positive reaction” and the “susceptibility of SK-MEL-5 melanoma cells” value [14] was “susceptible”. The “susceptibility of DU-145 prostate cancer cells” value [15] was “susceptible”, the “COMPARE correlation (P) of cytotoxicity profile with antimitotic/tubulin agents” value [16] was 0.75-0.85 and the GI50 [17] was 92 nM. For the same compound, the GI50 [18] was 306 nM.
For Gatorbulin-2 [GB2], the IC50 [10] was over 10000 nM.
